Literature values in patent US8647680B2, “Methods and compositions for treatment of lesioned sites of body vessels” (Abbott Cardiovascular Systems Inc., priority 2006, dated 2014).

Key:
[1] = test system: macrophage cells; conditions: oral administration

Structure (SMILES) | solubility in water [µM] | apoptosis of macrophage cells [1]
[N]=O [nitric oxide] | 2000 to 3000 | 
N=C(N)NCCC[C@H](N)C(=O)O [L-arginine] |  | increased apoptosis of macrophage cells
